In article PMC6887720 (Pharmacology Research & Perspectives, 2019):
Where two headings read alike, the source gives them in different places. Residues, ends and D or L forms follow the SMILES beside them. No end group written: not given here.

How the values were obtained:
[1] = biological target: EED (embryonic ectoderm development) (Homo sapiens, UniProt O75530); assay: Binding to EED
rat = assay: Intravenous pharmacokinetic study in rat: observed adverse signs; assay type: in vivo; settings: intravenous bolus 5 mg/kg
human MrgX2 (hMrgX2) [2] = biological target: T1, human MrgX2 (hMrgX2) (Homo sapiens, UniProt Q96LB1); assay: Ca2+ mobilization; assay type: cell-based
T1 sequence (Q96LB1 1-330): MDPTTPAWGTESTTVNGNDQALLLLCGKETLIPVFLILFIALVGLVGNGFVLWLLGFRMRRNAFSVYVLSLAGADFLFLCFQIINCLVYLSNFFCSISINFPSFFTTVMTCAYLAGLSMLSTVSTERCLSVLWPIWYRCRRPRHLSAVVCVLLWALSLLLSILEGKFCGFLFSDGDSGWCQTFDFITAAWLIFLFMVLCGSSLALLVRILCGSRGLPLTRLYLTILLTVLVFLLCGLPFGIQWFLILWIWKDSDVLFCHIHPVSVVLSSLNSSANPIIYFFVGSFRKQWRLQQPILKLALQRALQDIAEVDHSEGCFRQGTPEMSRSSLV

[3] = test system: rat MrgX2 (rMrgX2, Mrgprb3); assay: Ca2+ mobilization; assay type: cell-based; settings: for calcium response (in words): no Gα16
[4] = biological target: T2, truncated beagle MrgX2 (beMrgX2) (Canis lupus familiaris, UniProt A0A4Y5P885); assay: Ca2+ mobilization; assay type: cell-based, beagle dog; settings: for calcium response (in words): truncated beMrgX2
T2 sequence (A0A4Y5P885 88-417): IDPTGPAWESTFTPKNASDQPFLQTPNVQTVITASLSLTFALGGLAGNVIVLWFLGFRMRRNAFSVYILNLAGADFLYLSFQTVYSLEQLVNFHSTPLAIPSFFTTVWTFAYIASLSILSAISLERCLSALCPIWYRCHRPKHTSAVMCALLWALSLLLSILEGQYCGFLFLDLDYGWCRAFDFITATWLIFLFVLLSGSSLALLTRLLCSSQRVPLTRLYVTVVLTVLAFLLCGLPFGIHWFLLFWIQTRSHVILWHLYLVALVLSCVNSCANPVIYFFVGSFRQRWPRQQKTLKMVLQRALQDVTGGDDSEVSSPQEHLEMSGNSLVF

minipig MrgX2 (mpMrgX2) = biological target: T3, minipig MrgX2 (mpMrgX2) (Sus scrofa, UniProt A0A4Y5P9C0); assay: Ca2+ mobilization; assay type: cell-based; settings: for calcium response (in words): truncated mpMrgX2
T3 sequence (A0A4Y5P9C0 38-367): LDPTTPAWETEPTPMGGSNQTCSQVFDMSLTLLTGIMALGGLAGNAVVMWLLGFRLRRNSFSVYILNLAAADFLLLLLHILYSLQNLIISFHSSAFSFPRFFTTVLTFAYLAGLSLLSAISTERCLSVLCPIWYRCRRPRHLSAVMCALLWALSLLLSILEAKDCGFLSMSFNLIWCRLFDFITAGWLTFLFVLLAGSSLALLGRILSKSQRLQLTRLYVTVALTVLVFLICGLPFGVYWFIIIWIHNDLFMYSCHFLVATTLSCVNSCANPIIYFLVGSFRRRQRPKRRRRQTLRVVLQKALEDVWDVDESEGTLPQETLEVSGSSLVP

pig MrgX2 (pMrgX2) = assay: Ca2+ mobilization; assay type: cell-based; settings: data not shown
[5] = test system: U2OS cells (untransfected); assay: Ca2+ mobilization in U2OS cells lacking MrgX2; assay type: cell-based, human
human MrgX2 (hMrgX2) [6] = biological target: T1, human MrgX2 (hMrgX2); assay: Ca2+ mobilization; assay type: cell-based; remark: listed apart in the source
mpMrgX2 = assay: Ca2+ mobilization, mpMrgX2 transfected into HEK293-MSRII-Gα16 cells; assay type: cell-based, minipig; settings: data not shown
HEK293-MSRII-Gα16 cells = assay: Ca2+ mobilization, untransfected HEK293-MSRII-Gα16 host cells; assay type: cell-based, human; settings: data not shown
human MrgX1 (hMrgX1) = human MrgX1 (hMrgX1) (Homo sapiens, UniProt Q96LB2); assay: Ca2+ mobilization; assay type: cell-based; settings: hMrgX1-Gα16 cells
[7] = biological target: T4, mouse MrgX2 (mMrgX2, Mrgprb2) (Mus musculus, UniProt Q3KNA1); assay: Ca2+ mobilization; assay type: cell-based; settings: no Gα16, up to 1mM
T4 sequence (Q3KNA1 1-338): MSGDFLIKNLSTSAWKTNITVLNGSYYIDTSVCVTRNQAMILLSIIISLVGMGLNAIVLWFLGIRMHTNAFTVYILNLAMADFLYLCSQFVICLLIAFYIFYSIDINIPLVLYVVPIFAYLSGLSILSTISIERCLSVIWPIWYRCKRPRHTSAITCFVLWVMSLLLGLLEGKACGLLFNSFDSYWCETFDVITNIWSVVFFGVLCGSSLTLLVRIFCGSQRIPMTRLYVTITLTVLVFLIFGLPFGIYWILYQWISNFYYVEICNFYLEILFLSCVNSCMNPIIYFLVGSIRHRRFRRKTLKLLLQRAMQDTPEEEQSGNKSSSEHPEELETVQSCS

[8] = cited from earlier work
[9] = dog, cited from earlier work
[10] = minipig; cited from earlier work
[11] = test system: mouse MrgX2 versus human MrgX2; settings: cited from earlier work
[12] = untransfected U2OS parent cells

human MrgX1 (hMrgX1), sequence (Q96LB2 whole entry): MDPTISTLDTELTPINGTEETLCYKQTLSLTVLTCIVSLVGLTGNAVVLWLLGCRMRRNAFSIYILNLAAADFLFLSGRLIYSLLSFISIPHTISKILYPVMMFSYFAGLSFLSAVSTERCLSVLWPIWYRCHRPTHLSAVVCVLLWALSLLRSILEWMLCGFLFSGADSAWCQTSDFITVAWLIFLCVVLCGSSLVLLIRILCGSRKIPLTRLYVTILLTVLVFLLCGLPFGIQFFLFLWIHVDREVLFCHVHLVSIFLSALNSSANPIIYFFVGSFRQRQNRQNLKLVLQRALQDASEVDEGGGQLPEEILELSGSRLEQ
EED (embryonic ectoderm development), sequence (O75530 whole entry, species assumed): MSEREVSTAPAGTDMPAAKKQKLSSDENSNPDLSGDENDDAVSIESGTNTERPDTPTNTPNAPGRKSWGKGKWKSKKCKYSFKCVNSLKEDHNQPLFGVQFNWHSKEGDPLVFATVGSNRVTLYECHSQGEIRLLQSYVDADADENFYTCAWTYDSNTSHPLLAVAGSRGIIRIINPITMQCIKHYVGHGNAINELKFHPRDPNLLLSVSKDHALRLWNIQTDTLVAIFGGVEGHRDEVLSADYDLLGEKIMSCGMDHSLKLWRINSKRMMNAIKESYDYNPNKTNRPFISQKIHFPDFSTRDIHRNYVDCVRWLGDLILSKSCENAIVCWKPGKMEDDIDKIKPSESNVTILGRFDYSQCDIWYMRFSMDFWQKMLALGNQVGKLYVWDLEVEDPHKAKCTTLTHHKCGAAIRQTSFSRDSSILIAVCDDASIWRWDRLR

## CCCC[C@@H]1NC(=O)[C@@](C)(NC(C)=O)CCCC=CCCC[C@@](C)(C(=O)N[C@@H](CC(N)=O)C(=O)N[C@@H](CCCNC(=N)N)C(=O)N[C@@H](CCC(N)=O)C(=O)N[C@@H](CCCCN)C(=O)N[C@H](C(=O)N[C@@H](CC(C)C)C(=O)N[C@@H](CCC(=O)O)C(=O)N[C@@H](CCCNC(=N)N)C(=O)N[C@H](C(=O)N[C@@]2(C)CCCC=CCCC[C@@](C)(C(=O)N[C@@H](CCC(=O)O)C(=O)N[C@@H](Cc3c[nH]c4ccccc34)C(=O)N[C@@H](CCCCN)C(=O)N[C@@H](CCC(N)=O)C(=O)N[C@@H](CCCNC(=N)N)C(N)=O)NC(=O)[C@H](CC(N)=O)NC(=O)[C@H](CC(C)C)NC(=O)[C@H]([C@@H](C)CC)NC2=O)[C@@H](C)O)[C@@H](C)CC)NC(=O)[C@H](CO)NC(=O)[C@H](Cc2ccccc2)NC1=O (relative stereo) [Peptide 4]
[1]
  IC50 (binding to EED): high affinity
rat
  time to observation of symptoms: ≤ 3 min

## CCCC[C@@H]1NC(=O)[C@@](C)(NC(C)=O)CCCC=CCCC[C@@](C)(C(=O)N[C@@H](CC(N)=O)C(=O)N[C@@H](CCCNC(=N)N)C(=O)N[C@@H](CCC(N)=O)C(=O)N[C@@H](CCCCN)C(=O)N[C@H](C(=O)N[C@@H](CC(C)C)C(=O)N[C@@H](CCCNC(=N)N)C(=O)N[C@@H](CCCNC(=N)N)C(=O)N[C@H](C(=O)N[C@@]2(C)CCCC=CCCC[C@@](C)(C(=O)N[C@@H](CCC(=O)O)C(=O)N[C@@H](Cc3c[nH]c4ccccc34)C(=O)N[C@@H](CCCCN)C(=O)N[C@@H](CCC(N)=O)C(=O)N[C@@H](CCCNC(=N)N)C(N)=O)NC(=O)[C@H](CC(N)=O)NC(=O)[C@H](CC(C)C)NC(=O)[C@H]([C@@H](C)CC)NC2=O)[C@@H](C)O)[C@@H](C)CC)NC(=O)[C@H](CO)NC(=O)[C@H](Cc2ccccc2)NC1=O (relative stereo) [GSK3212448]
Human MrgX2 (hMrgX2) [2]; hMrgX2-Gα16-U2OS cells
  calcium response (in words): could activate hMrgX2‐Gα16‐U2OS
[3]; rMrgX2 in U2OS cells
  fold more potent than reference agonist 48/80: 18 fold
[4]
  calcium response (in words): activated
Minipig MrgX2 (mpMrgX2)
  calcium response (in words): activated
Pig MrgX2 (pMrgX2)
  calcium response (in words): activated
rat
  time to observation of symptoms: ≤ 2 min
[5]; U2OS cells transduced with Gα16 in the absence of hMrgX2
  calcium response (in words): but not Gα16‐U2OS cells

## C[C@@H](O)[C@@H]1NC(=O)[C@H](CCCCN)NC(=O)[C@H](Cc2c[nH]c3ccccc23)NC(=O)[C@H](Cc2ccccc2)NC(=O)[C@H](Cc2ccccc2)NC(=O)[C@H](CC(N)=O)NC(=O)[C@H](CCCCN)NC(=O)[C@@H](NC(=O)[C@@H]2CCCN2)CSSC[C@@H](C(=O)N[C@@H](CCCCN)C(=O)O)NC(=O)[C@H](CO)NC(=O)[C@H](CO)NC(=O)[C@H](Cc2ccccc2)NC1=O [Cortistatin-14] (HELM PEPTIDE1{P.C.K.N.F.F.W.K.T.F.S.S.C.K}$PEPTIDE1,PEPTIDE1,2:R3-13:R3$$$V2.0)
Human MrgX2 (hMrgX2) [6]
  EC50: 0.316 to 0.794 µM
[3]
  calcium response (in words): conferred a response
[5]; [12]
  calcium response (in words): No U2OS calcium response
mpMrgX2
  calcium response (in words): conferred calcium responses
HEK293-MSRII-Gα16 cells
  calcium response (in words): failed to activate untransfected host cells

## VGRPEWWMDYNKRYG [BAM8-22]
Human MrgX1 (hMrgX1)
  calcium response (in words): higher potency at hMrgX1‐Gα16 cells

## NCCc1c[nH]cn1 [histamine]
HEK293-MSRII-Gα16 cells
  calcium response (in words): did not cause calcium release

## CN[C@H](CC(C)C)C(=O)N[C@H]1C(=O)N[C@@H](CC(N)=O)C(=O)N[C@H]2C(=O)N[C@H]3C(=O)N[C@H](C(=O)N[C@H](C(=O)O)c4cc(O)cc(O)c4-c4cc3ccc4O)[C@H](O)c3ccc(c(Cl)c3)Oc3cc2cc(c3O[C@@H]2O[C@H](CO)[C@@H](O)[C@H](O)[C@H]2O[C@H]2C[C@](C)(N)[C@H](O)[C@H](C)O2)Oc2ccc(cc2Cl)[C@H]1O [vancomycin]
Human MrgX2 (hMrgX2) [2]
  EC50: 39.8 µM
  Emax: 87 ± 8%
[7]
  calcium response (in words): did not reach maximal effect at 1mM
[3]
  calcium response (in words): did not reach maximal effect at 1mM
[4]
  EC50: 25.1 µM
  calcium response (in words): full or near‐full agonist
[4]; U2OS
  Emax: 97 ± 12%
Minipig MrgX2 (mpMrgX2)
  EC50: 158 µM
  calcium response (in words): full or near‐full agonist
Minipig MrgX2 (mpMrgX2); U2OS
  Emax: 84 ± 13%
[5]; [12]
  calcium response (in words): Negligible calcium responses
[8]; serum
  protein binding: 50%
[8]; vancomycin-treated patients
  Cmax: > 30 µM
  trough (lowest) free serum concentration: ≈ 5 ± 2 µmol/L
  trough serum concentration: 13.6 ± 5.9 mg/L
[9]; assuming 50% protein binding
  free Cmax: ≈ 35 µmol/L
[9]
  Cmax: ≈ 100 µg/ml
  histamine-like symptoms (in words): no histamine‐like symptoms were observed
[10]
  Cmax: 34000 ng/mL
  free Cmax: ≈ 23 µmol/L
  histamine-like symptoms (in words): no histamine‐like symptoms were observed

## CAS #: 130308-48-4 [Icatibant]
[5]; [12]
  calcium response (in words): No U2OS calcium response
[11]
  fold less potent at mouse than human MrgX2: twofold
